In patent US6713265B1 (Synaptic Pharmaceutical Corporation, priority 1999, dated 2004):
Several values for one entry are separate records, joined by “and”; a condition that tells them apart may be missing. Identical values can stand only once. Counter-ions that a name gives are not always drawn.

Assays:
[1] = tested on: NPY-induced feeding behavior; assay: NPY-induced food intake in satiated rats; format: in vivo, rat; conditions: for Food intake, NPY + compound: compound 10 mg/kg i.p. then 300 pmole NPY i.c.v., 4 hours
Experimental: For these determinations food intake may be measured in normal satiated rats after intracerebroventricular application (i.c.v.) of NPY in the presence or absence of the test compound. Male Sprague Dawley rats (Ciba-Geigy AG, Sisseln, Switzerland) weighing between 180 g and 220 g are used for all experiments. The rats are individually housed in stainless steel cages and maintained on an 11:13 h light-dark cycle (lights off at 18:00 h) at a controlled temperature of 21-23° C. at all times. Water and food (NAFAG lab chow pellets NAFAG, Gossau, Switzerland) are available ad libidum.
Rats under pentobarbital anesthesia are stereotaxically implanted with a stainless steel guide cannula targeted at the right lateral ventricle. Stereotaxic coordinates, with the incisor bar set −2.0 mm below interaural line, are: −0.8 mm anterior and +1.3 mm lateral to bregma. The guide cannula is placed on the dura. Injection cannulas extend the guide cannulas −3.8 mm ventrally to the skull surface. Animals are allowed at least 4 days of recovery postoperatively before being used in the experiments. Cannula placement is checked postoperatively by testing all rats for their drinking response to a 50. ng intracerebroventricular (i.c.v.) injection of angiotensin II. Only rats which drink at least 2.5 ml of water within 30 min. after angiotensin II injection are used in the feeding studies.
All injections are made in the morning 2 hours after light onset. Peptides are injected in artificial cerebrospinal fluid (ACSF) in a volume of 5 μl. ACSF contains: NaCl 124 mM, KCl 3.75 mM, CaCl2 2.5 mM, MgSO4 2.0 mM, KH2PO4 0.22 mM, NaHCO3 26 mM and glucose 10 mM. Porcine-NPY (p-NPY) are dissolved in artificial cerebrospinal fluid (ACS). For i.c.v. injection the test compounds are preferably dissolved in DMSO/water (10%, v/v). The vehicle used for intraperitoneal (i.p.), subcutaneous (s.c.) or oral (p.o.) delivery of compounds is preferably water, physiological saline or DMSO/water (10% v/v), or cremophor/water (20% v/v), respectively.
Animals which are treated with both test compounds and porcine-NPY are treated first with the test compound.
Food intake may be measured by placing preweighed pellets into the cages at the time of NPY injection. Pellets are then removed from the cage subsequently at each selected time point and replaced with a new set of preweighed pellets. The food intake of animals treated with test compound may be calculated as a percentage of the food intake of control animals i.e., animals treated with vehicle. Alternatively, food intake for each group of animals subjected to a particular experimental condition may be expressed as the mean±S.E.M. Statistical analysis is performed by analysis of variance using the Student-Newman-Keuls test.
Food intake is reported as the mean±S.E.M. intake for a group of animals.

food intake = assay: Food intake in food-deprived rats; format: in vivo, rat; conditions: 30 mg/kg i.p., after 24h food deprivation
Experimental: After receipt, the animals are individually housed for the duration of the study and allowed free access to normal food together with tap water. The animals are maintained in a room with a 12 h light/dark cycle (8:00 a.m. to 8:00 p.m. light) at 24° C. and monitored humidity. After placement into individual cages the rats undergo a 4 day equilibration period, during which they are habituated to their new environment and to eating a powdered or pellet diet NAFAG, Gossau, Switzerland).
At the end of the equilibration period, food is removed from the animals for 24 hours starting at 8:00 a.m. At the end of the fasting period compound or vehicle may be administered to the animals orally or by injection intraperitoneally or intravenously. After 10-60 min. food is returned to the animals and their food intake is monitored at various time periods during the following 24 hour period. The food intake of animals treated with test compound may be calculated as a percentage of the food intake of control animals (i.e., animals treated with vehicle). Alternatively, food intake for each group of animals subjected to a particular experimental condition may be expressed as the mean±S.E.M.
Measurements were performed two hours after administration of the test compound.

α2c = molecular target: T1, α2c (Homo sapiens, UniProt P18825); assay: Binding at cloned human α2c adrenergic receptor
T1 sequence (P18825 1-462): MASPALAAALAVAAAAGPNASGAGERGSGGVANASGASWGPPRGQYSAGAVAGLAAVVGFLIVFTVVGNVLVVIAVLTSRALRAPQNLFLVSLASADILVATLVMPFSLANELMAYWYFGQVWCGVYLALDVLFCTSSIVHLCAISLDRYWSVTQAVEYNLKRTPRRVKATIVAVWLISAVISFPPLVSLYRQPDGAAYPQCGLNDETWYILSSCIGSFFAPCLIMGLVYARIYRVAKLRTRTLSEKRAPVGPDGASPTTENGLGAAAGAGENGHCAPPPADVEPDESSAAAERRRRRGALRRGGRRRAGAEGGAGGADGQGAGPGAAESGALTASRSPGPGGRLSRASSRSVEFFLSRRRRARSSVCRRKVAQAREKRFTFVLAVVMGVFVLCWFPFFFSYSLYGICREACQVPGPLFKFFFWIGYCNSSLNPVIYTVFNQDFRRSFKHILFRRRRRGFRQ

human Y4 receptor = molecular target: T2, human Y4 receptor (Homo sapiens, UniProt P50391); assay: ^125I-PYY binding to membranes, cloned human Y4 receptor; conditions: read-out: Binding Affinity Ki vs. ^125I-PYY, Human Receptor Y4; Table 14; stably transfected LM(tk-) cells
T2 construct: expressed in transfected cells; host or cells: COS-7 (transient)

human Y1 receptor = molecular target: T3, human Y1 receptor (Homo sapiens, UniProt P25929); assay: ^125I-PYY binding to membranes, cloned human Y1 receptor; conditions: read-out: Binding Affinity Ki vs. ^125I-PYY, Human Receptor Y1; Table 14; stably transfected 293 cells (compound 1 also COS-7)
T3 construct: expressed in transfected cells; host or cells: COS-7 (transient)
T3 sequence (P25929 1-384): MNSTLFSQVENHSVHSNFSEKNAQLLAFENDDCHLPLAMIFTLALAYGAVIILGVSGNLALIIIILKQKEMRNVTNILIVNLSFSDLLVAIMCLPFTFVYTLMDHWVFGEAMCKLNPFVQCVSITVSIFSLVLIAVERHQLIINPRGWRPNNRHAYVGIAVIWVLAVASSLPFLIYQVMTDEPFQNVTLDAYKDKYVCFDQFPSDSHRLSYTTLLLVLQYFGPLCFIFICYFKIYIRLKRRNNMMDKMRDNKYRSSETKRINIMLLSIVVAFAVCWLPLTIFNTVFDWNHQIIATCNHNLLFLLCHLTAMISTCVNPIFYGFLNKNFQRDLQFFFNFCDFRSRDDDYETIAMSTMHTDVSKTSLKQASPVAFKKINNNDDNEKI

human Y2 receptor = molecular target: T4, human Y2 receptor (Homo sapiens, UniProt P49146); assay: ^125I-PYY binding to membranes, cloned human Y2 receptor; conditions: read-out: Binding Affinity Ki vs. ^125I-PYY, Human Receptor Y2; Table 14; stably transfected 293 cells (compound 1 also COS-7)
T4 construct: expressed in transfected cells; host or cells: COS-7 (transient)
T4 sequence (P49146 1-381): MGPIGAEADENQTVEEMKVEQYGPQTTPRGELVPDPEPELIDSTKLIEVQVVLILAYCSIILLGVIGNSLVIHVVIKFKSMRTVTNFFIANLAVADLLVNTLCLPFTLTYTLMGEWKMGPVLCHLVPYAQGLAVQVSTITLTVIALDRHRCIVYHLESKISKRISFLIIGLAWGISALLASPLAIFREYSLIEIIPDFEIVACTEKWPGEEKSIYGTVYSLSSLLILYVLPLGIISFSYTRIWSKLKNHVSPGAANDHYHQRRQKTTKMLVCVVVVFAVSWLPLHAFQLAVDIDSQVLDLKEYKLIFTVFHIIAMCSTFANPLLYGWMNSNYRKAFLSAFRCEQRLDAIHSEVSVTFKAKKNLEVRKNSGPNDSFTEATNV

human Y5 receptor [2] = molecular target: T5, human Y5 receptor (Homo sapiens, UniProt Q15761); assay: Radioligand binding to membranes of cells expressing cloned human Y5 receptor; parameters: Ki Values, Human Y5; apparent Kd; pKd; The isolated clone (CG-19) turned out to contain a full length cDNA; The longest open reading frame encodes a 455 amino acid protein; conditions: read-out: Binding Affinity Ki vs. ^125I-PYY, Human Receptor Y5; Table 14; stably transfected LM(tk-) cells
T5 sequence (Q15761 1-445): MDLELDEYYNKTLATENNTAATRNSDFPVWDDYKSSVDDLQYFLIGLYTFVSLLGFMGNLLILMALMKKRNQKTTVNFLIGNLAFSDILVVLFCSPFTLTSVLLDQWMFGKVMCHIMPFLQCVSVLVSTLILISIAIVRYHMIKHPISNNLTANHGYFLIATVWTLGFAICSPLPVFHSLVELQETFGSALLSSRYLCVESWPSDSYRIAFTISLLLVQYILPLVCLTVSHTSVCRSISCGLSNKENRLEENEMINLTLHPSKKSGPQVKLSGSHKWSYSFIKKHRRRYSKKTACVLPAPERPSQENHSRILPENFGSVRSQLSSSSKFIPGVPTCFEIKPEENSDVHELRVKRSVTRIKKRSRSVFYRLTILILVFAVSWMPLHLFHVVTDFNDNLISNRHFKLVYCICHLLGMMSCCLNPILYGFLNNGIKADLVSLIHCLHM

human Y5 receptor [3] = molecular target: T5, human Y5 receptor; assay: Radioimmunoassay of cAMP, cells stably expressing human Y5 receptor; format: cell-based; parameters: Ki Values, Human Y5; apparent Kd; pKd; The isolated clone (CG-19) turned out to contain a full length cDNA; The longest open reading frame encodes a 455 amino acid protein; conditions: block of NPY-induced inhibition of cAMP accumulation, forskolin-stimulated LM(tk-) cells, human Y5
Experimental: LM(tk-) cells stably transfected with the human Y5 receptor were routinely converted from an adherent monolayer to a viable suspension. […] The cell suspension was maintained in a shaking incubator at 37° C., 5% CO2 for 24 hours. […] Alternatively, cells may be returned to adherent cell culture in complete DMEM by distribution into 96-well microtiter plates coated with poly-D-lysine (0.01 mg/ml) followed by incubation at 37° C., 5% CO2 for 24 hours.
The maximum inhibition of cAMP accumulation (Emax) and the concentration producing a half-maximal effect (EC50) were determined by nonlinear regression analysis according to a 4 parameter logistic equation.
The ability of the compounds to antagonize the Y-type receptors is reported as the Kb. […] The results shown are representative of at least three independent experiments.

T2 sequence (P50391 whole entry): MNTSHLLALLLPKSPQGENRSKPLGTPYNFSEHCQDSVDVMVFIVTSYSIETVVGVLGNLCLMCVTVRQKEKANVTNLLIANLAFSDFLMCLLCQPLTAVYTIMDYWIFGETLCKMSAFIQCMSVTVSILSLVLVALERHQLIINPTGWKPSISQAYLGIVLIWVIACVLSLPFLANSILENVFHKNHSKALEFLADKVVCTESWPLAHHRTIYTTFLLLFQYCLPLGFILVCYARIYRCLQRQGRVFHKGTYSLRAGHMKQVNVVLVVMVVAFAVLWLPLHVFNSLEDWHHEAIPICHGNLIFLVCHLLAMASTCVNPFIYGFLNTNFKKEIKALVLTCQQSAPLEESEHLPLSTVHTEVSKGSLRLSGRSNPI

**Q.** `c1ccc(Nc2nc(Nc3ccccc3)c3ccccc3n2)cc1` [Compound 1, 2,4-Diphenylamino-guinazoline hydrochloride] was tested. Which “Food intake, NPY + compound” value ([1]; mean ± S.E.M.) did it give?
**A.** 4.6 ± 0.6 g

**Q.** Which “Two-hour food intake of food-deprived rats, percentage of intake compared to control rats, Mean” value (food intake) does the source give for `Nc1nc(NCCCCCCNS(=O)(=O)c2cccc3ccccc23)nc2ccccc12` [Compound 2, Naphthalene-1-sulfonic acid [6-(4-amino-quinazolin-2-ylamino)-hexyl]-amide] here?
**A.** 42%

**Q.** With `Cl.Nc1nc(NC[C@H]2CC[C@H](CNS(=O)(=O)c3cccc4ccccc34)CC2)nc2ccccc12` [Compound 5, trans-Naphthalene-1-sulfonic acid {4-[(4-amino-quinazolin-2-ylamino)-methyl]-cyclohexylmethyl}-amide hydrochloride] as the compound, how does the “Food intake, NPY + compound” value ([1]; mean ± S.E.M.) read?
**A.** 4.1 ± 0.4 g

**Q.** Which results are given for `Cl.Cl.c1ccc(Nc2nc(Nc3ccc(N4CCCCC4)cc3)nc3ccccc23)cc1` [Compound 6, 2-[4-(Piperidin-1-yl)-phenylamino]-4-Phenylamino-quinazoline dihydrochloride]?
**A.** Two-hour food intake of food-deprived rats, percentage of intake compared to control rats, Mean (food intake): 38%; Ki (α2c): 0.447 µM

**Q.** How did the “Two-hour food intake of food-deprived rats, percentage of intake compared to control rats, Mean” value (food intake) turn out when `CC(=O)O[C@H]1CC[C@H](Nc2nc(Nc3ccccc3)c3ccccc3n2)CC1.Cl` [Compound 7, trans-2-(4-Acetoxy-cyclohexylamino)-4-Phenylamino-quinazoline hydrochloride] was run?
**A.** 47%

**Q.** For `COc1ccc(Nc2nc(Nc3ccccc3)c3cccc(OC)c3n2)cc1.Cl` [Compound 9, 8-Methoxy-2-(4-methoxy-phenylamino)-4-phenylamino-quinazoline hydrochloride], which “Two-hour food intake of food-deprived rats, percentage of intake compared to control rats, Mean” value (food intake) is on record?
**A.** 40%

**Q.** Which “Two-hour food intake of food-deprived rats, percentage of intake compared to control rats, Mean” value (food intake) does the source give for `CNS(=O)(=O)Cc1ccc(Nc2nc(Nc3ccccc3)c3cc(OC)ccc3n2)cc1` [Compound 10, N-Methyl-[4-(6-methoxy-4-phenylamino-quinazolin-2-ylamino)-phenyl1-methanesulfonamide hydrochloride] here?
**A.** 74%

**Q.** `CNS(=O)(=O)Cc1ccc(Nc2nc(Nc3ccccc3)c3ccccc3n2)cc1.Cl` [Compound 11, N-Methyl-[4-(4-Phenylamino-quinazolin-2-ylamino)-phenyl]-methanesulfonamide hydrochloride] was tested. Which “Two-hour food intake of food-deprived rats, percentage of intake compared to control rats, Mean” value (food intake) did it give?
**A.** 15%

**Q.** How did the Ki (human Y4 receptor) turn out when `Cl.O=S(=O)(NC[C@H]1CC[C@H](CNCc2ccc3ccccc3c2)CC1)c1ccccc1C(F)(F)F` [Compound 21] was run?
**A.** 18.5 µM

**Q.** What about the Ki (human Y1 receptor) of the same compound?
**A.** 13 µM

**Q.** And the Ki (human Y2 receptor)?
**A.** 1.61 µM

**Q.** What about the “Two-hour food intake of food-deprived rats, percentage of intake compared to control rats, Mean” value (food intake) of the same compound?
**A.** 80%

**Q.** And the Ki (human Y5 receptor [2])?
**A.** 0.0098 µM

**Q.** With `Cl.O=S(=O)(NC[C@H]1CC[C@H](CNCc2cccc3ccccc23)CC1)c1ccccc1C(F)(F)F` [Compound 23] as the compound, how does the Ki (human Y4 receptor) read?
**A.** 21.5 µM

**Q.** What about the Ki (human Y1 receptor) of the same compound?
**A.** 14.5 µM

**Q.** And the Ki (human Y2 receptor)?
**A.** 0.617 µM

**Q.** What about the “Two-hour food intake of food-deprived rats, percentage of intake compared to control rats, Mean” value (food intake) of the same compound?
**A.** 58%

**Q.** And the Ki (human Y5 receptor [2])?
**A.** 0.026 µM

**Q.** What about the Kb (human Y5 receptor [3]) of the same compound?
**A.** 0.038 µM

**Q.** With `Cl.Cl.O=[N+]([O-])c1ccccc1S(=O)(=O)NC[C@H]1CC[C@H](CNCc2ccc3ccccc3n2)CC1` [Compound 26] as the compound, how does the Ki (human Y4 receptor) read?
**A.** 19.3 µM

**Q.** What about the Ki (human Y1 receptor) of the same compound?
**A.** 23.7 µM

**Q.** What about the Ki (human Y2 receptor) of the same compound?
**A.** 58.2 µM

**Q.** And the “Two-hour food intake of food-deprived rats, percentage of intake compared to control rats, Mean” value (food intake)?
**A.** 73%

**Q.** For “NPY: peptide neurotransmitter neuropeptide Y, 36 amino acids; feeding studies used 300 pmole of porcine NPY i.c.v.”, which “Food intake, NPY” value ([1]; 300 pmole NPY i.c.v. alone, cumulative intake 4 hours after NPY, mean ± S.E.M.) is on record?
**A.** 7.4 ± 0.5 g and 6.8 ± 1.0 g and 5.8 ± 0.5 g and 4.9 ± 0.4 g

**Q.** What about the “food intake of NPY-stimulated animals compared to vehicles” value ([1]; 300 pmole i.c.v., p<0.05 Student-Newman-Keuls) of the same compound?
**A.** significantly induce food intake
